The text below walks through data of article PMC6920997, “Total Phenolic and Flavonoid Content and Biological Activities of Extracts and Isolated Compounds of Cytisus villosus Pourr” (Biomolecules, 2019).

Values after ≈ are worked out from the molar mass of the structure shown. Where only a bound is given, the exact number is not on record here.

The subject of data set [1] is iNOS. Nature of the data set: Inhibition of iNOS (intracellular NO production) in RAW 264.7 macrophages. In kind it is cell-based. The following applies: Mus musculus, RAW264.7; RAW 264.7 cells; NA = no activity at 25 µg/mL (pure compounds) or 100 µg/mL (extracts). As for the experimental part:
The extracts and isolated compounds of C. villosus were evaluated in terms of their interaction with cellular targets related to inflammation and metabolic disorders, such as iNOS and NF-κB. The inhibition of intracellular NO production as a result of iNOS activity was assayed in mouse macrophages (RAW 264.7cells). Cytotoxicity of test samples to macrophages was also determined in parallel to check if the inhibition of iNOS was due to cytotoxic effects.

The subject of data set [2] is NF-κB. The data set is described as follows: Reporter gene assay for the inhibition of NF-κB. In kind it is cell-based. The note with it: PMA-treated cells, luciferase reporter; NA = no activity at 25 µg/mL (pure compounds) or 100 µg/mL (extracts); read-out: Inhibition of NF-kB IC50. On the procedure:
Reporter gene assay for the inhibition of NF-κB Activity was performed as described earlier. In brief, cells transfected with NF-κB luciferase plasmid construct were plated in 96-well plates at a density of 1.25 × 10^5 cells/well. After 24 h, cells were treated with the test compounds and, after incubating for 30 min, phorbol 12-myristate 13-acetate (PMA) (Sigma-Aldrich, Burlington MA, USA) (70 ng/mL) was added and further incubated for 6−8 h. Luciferase activity was measured as described above. Percent decrease in luciferase activity was calculated relative to the vehicle control. Parthenolide (Sigma-Aldrich, Burlington MA, USA) was used as a positive control.

The subject of data set [3] is Candida albicans. Nature of the data set: Antifungal assay C. albicans. Type of data set: cell-based. The note with it: pure compounds. On the procedure:
(§1) Extracts and pure compounds were tested for their antimicrobial activity against Staphylococcus aureus, methicillin-resistant S. aureus (MRSA), Escherichia coli, Pseudomonas aeruginosa, and Mycobacterium intracellulare. The antifungal activities were evaluated against a panel of pathogenic fungi, including Candida albicans, C. glabrata, C. krusei, Aspergillus fumigatus, and Cryptococcus neoformans, associated with opportunistic infections.

In data set [4] the test system is Cryptococcus neoformans. The data set is described as follows: Antifungal assay C. neoformans. In kind it is cell-based. The note with it: pure compounds. On the procedure: as §1
Data set [5] deals with Staphylococcus aureus. Nature of the data set: Antibacterial assay S. aureus. Type of data set: cell-based. The note with it: pure compounds. On the procedure: as §1
In data set [6] the test system is Escherichia coli. The data set is described as follows: Antibacterial assay E. coli. Type of data set: cell-based. The note with it: pure compounds. As for the experimental part: as §1
In data set [7] the test system is Pseudomonas aeruginosa. The data set is described as follows: Antibacterial assay P. aeruginosa. Type of data set: cell-based. The note with it: pure compounds. On the procedure: as §1
In data set [8] the test system is P. falciparum (D6 Clone). The data set is described as follows: Antimalarial assay, chloroquine-sensitive D6 clone. In kind it is cell-based, Plasmodium falciparum. The following applies: selectivity index = IC50 for cytotoxicity/IC50 for antimalarial activity. The text has this: (§2) The in vitro antileishmanial and antitrypanosomal assays were done on cell cultures of L. donovani promastigotes, axenic amastigotes, THP1-amastigotes, and Trypanosoma brucei trypomastigotes by Alamar Blue assays. The conditions for seeding the THP1 cells, exposure to the test samples, and evaluation of cytotoxicity were the same as described in parasite-rescue and transformation assay. IC50 and IC90 values were computed from the dose response curves using XLfit software (XLfit 5.3.1, IDBS analytical, Boston MA, USA). DFMO (difluoromethylornithine) was used as the positive control. The antiprotozoal activity of C. villosus extracts and isolated compounds were evaluated in vitro against L. donovani promastigotes, axenic amastigotes, and intracellular amastigotes in THP1 cells. The extracts and some isolated compounds were also evaluated against T. brucei trypomastigote forms. All the extracts and compounds were simultaneously tested against THP1 cell for determination of general cytotoxicity. The extracts and isolated compounds were also evaluated for their antimalarial activity against chloroquine-sensitive (D6, Sierra Leone) and chloroquine-resistant strains (W2, Indochina) strains of Plasmodium falciparum. Furthermore, they were tested for cytotoxicity against the Vero cell line.

Data set [9] relates to P. falciparum (W2 Clone). Nature of the data set: Antimalarial assay, chloroquine-resistant W2 clone. Type of data set: cell-based, Plasmodium falciparum. The note with it: selectivity index = IC50 for cytotoxicity/IC50 for antimalarial activity.
Text: as §2

Data set [10] is described as follows: Cytotoxicity against Vero cell line (antimalarial counterscreen). Type of data set: cell-based. The following applies: African green monkey.
Text: as §2

The target in data set [11] is δ opioid receptor (Homo sapiens, UniProt P41143). Nature of the data set: Radioligand displacement δ opioid receptor. In kind it is binding.
Data set [12] concerns the target κ opioid receptor (Homo sapiens, UniProt P41145). Type of data set: binding.
In data set [13] the target is μ opioid receptor (Homo sapiens, UniProt P35372). Type of data set: binding.
Data set [14] is described as follows: Cytotoxicity assay (neutral red) SK-MEL. In kind it is cell-based. The note with it: human, SK-MEL cells, NA = No activity at 100 μM. As for the experimental part:
(§3) Each assay was performed in 96-well tissue culture-treated microplates. […] All cell lines were obtained from the American Type Culture Collection (ATCC, Rockville, MD, USA). Each assay was performed in 96-well tissue culture-treated microplates. Cells were seeded at a density of 25,000 cells/well and incubated for 24 h. Samples at different concentrations were added and cells were again incubated for 48 h. At the end of incubation, the cell viability was determined using neutral red dye according to a modification of the procedure of Borenfreund et al.. IC50 values were determined from dose−response curves of percent growth inhibition against test concentrations. Doxorubicin was used as a positive control, while DMSO was used as the negative (vehicle) control.

Data set [15] can be described thus: Cytotoxicity assay (neutral red) KB. In kind it is cell-based. The following applies: human, KB cells, NA = No activity at 100 μM. On the procedure:
as §3

Data set [16] in a line: Cytotoxicity assay (neutral red) BT-549. In kind it is cell-based. The following applies: human, BT-549 cells, NA = No activity at 100 μM. As for the experimental part:
as §3

Data set [17] is described as follows: Cytotoxicity assay (neutral red) SK-OV-3. Type of data set: cell-based. The note with it: human, SK-OV-3 cells, NA = No activity at 100 μM. On the procedure:
as §3

A short description of data set [18]: Cytotoxicity assay (neutral red) LLC-PK1. In kind it is cell-based. The following applies: pig, LLC-PK1 cells (noncancerous kidney cells), NC = Not cytotoxic. As for the experimental part: as §3

Chain of δ opioid receptor (P41143 whole entry): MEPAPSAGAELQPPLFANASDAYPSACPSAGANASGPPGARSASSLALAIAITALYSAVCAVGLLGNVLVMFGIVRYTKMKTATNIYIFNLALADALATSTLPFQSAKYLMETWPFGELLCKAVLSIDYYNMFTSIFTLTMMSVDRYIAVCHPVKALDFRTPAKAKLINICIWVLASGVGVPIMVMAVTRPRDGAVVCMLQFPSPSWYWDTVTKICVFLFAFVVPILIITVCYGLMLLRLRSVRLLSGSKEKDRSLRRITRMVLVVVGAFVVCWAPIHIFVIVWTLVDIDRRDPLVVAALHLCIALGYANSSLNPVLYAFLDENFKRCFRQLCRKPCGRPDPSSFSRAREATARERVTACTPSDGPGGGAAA
Chain of μ opioid receptor (P35372 whole entry): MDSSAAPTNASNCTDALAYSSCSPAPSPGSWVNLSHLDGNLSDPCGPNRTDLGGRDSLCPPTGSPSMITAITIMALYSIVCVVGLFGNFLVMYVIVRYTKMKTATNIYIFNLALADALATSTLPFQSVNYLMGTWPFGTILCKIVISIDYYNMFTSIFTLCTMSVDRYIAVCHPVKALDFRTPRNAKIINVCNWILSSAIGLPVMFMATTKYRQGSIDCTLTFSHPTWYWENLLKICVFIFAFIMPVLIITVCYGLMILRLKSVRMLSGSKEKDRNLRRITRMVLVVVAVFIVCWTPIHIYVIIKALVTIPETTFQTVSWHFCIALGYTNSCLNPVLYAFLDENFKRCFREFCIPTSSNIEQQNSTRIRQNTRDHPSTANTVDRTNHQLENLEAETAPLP
Chain of κ opioid receptor (P41145 whole entry): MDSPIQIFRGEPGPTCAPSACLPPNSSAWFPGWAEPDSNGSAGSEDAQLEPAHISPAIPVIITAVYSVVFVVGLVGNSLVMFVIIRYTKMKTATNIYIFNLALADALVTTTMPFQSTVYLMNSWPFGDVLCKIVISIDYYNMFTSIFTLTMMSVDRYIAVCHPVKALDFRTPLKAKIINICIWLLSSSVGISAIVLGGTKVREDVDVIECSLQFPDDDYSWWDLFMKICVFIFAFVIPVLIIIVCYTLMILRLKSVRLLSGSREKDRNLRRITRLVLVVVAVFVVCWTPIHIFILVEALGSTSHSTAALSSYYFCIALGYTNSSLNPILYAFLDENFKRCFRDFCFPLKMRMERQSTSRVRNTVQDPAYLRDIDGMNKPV

As for `O=c1cc(-c2ccccc2)oc2cc(O)cc(O)c12` [Compound 2, chrysin], the 50% inhibitory concentration (IC50) in data set [1] was over 25 µg/mL; in data set [2], 38 µg/mL (≈ 149 µM); in data set [3], over 20 µg/mL; in data set [4], over 20 µg/mL; in data set [5] it was over 20 µg/mL; in [6] it was over 20 µg/mL. Further, the IC50 is over 20 µg/mL in [7] and over 4.76 µg/mL in data set [10]. The “SI (first SI column of Table 7, presumably D6)” value in [8] is on record as 1. In data set [9], the “SI (second SI column of Table 7, presumably W2)” value stood at 1. In addition, in data set [11], the “Opioid Receptors (%) δ radioligand displacement” value came to 8.7%. Also, the “Opioid Receptors (%) κ radioligand displacement” value in data set [12] is reported as 12.8%. Further, the “Opioid Receptors (%) μ radioligand displacement” value in [13] was determined as 12.2%.

For `COc1cccc2c1C(=O)c1c(O)c3c(c(O)c1C2=O)C[C@@](O)(C(=O)CO)C[C@@H]3O[C@H]1C[C@H](N)[C@H](O)[C@H](C)O1` [doxorubicin, Doxorubicin], the IC50 at 48 h was 0.8 µg/mL (≈ 1.47 µM) in [14]; 1.3 µg/mL (≈ 2.39 µM) in data set [15]; 0.9 µg/mL (≈ 1.66 µM) in [16]; 2 µg/mL (≈ 3.68 µM) in data set [17]; 1.2 µg/mL (≈ 2.21 µM) in [18].
